Experimental data reported in patent US12612599B2, “Compositions and methods for microglia replacement therapy” (Savanna Biotherapeutics, Inc., priority 2018, dated 2026).

Test system: bone marrow derived macrophages (BMDMs) expressing human CSF1R variants
Experiment: In vitro survival assay of retrovirally transduced bone marrow derived macrophages expressing CSF1R variants under PLX3397
Type: cell-based, mouse
Conditions: PLX3397 100 nM, 48 hours, CellTiter-Glo 2; compared to cells expressing WT CSF1R; FIG. 23

D796A: human CSF1R variant, SEQ ID NO: 12
ratio between number of cells following treatment with CSF1R inhibitor (PLX-3397) + CSF1 and number of cells following complete deprivation of CSF1: higher ratio than cells expressing WT CSF1R

Y546F: human CSF1R variant, SEQ ID NO: 14
ratio between number of cells following treatment with CSF1R inhibitor (PLX-3397) + CSF1 and number of cells following complete deprivation of CSF1: higher ratio than cells expressing WT CSF1R

G795A: human CSF1R variant, SEQ ID NO: 10
ratio between number of cells following treatment with CSF1R inhibitor (PLX-3397) + CSF1 and number of cells following complete deprivation of CSF1: higher ratio than cells expressing WT CSF1R

M637L: human CSF1R variant, SEQ ID NO: 11
ratio between number of cells following treatment with CSF1R inhibitor (PLX-3397) + CSF1 and number of cells following complete deprivation of CSF1: higher ratio than cells expressing WT CSF1R
